Measured values from ChEMBL document CHEMBL1201862, “PubChem BioAssay data set” (2004).
Activity calls are given as the source filed them.

Legend:
[1] = biological target: Lytic switch protein BZLF1 (Epstein-Barr virus (strain B95-8) (HHV-4) (Human herpesvirus 4), UniProt P03206); experiment: inhibition of BZLF1 ZTA DNA binding – biochemical, fluorescence polarization, Epstein-Barr virus, 1536-well, counter-screen for EBNA-1 inhibitor project, dose response (AID 2377); parameters: species or system human gammaherpesvirus 4;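 note: fluorescence polarization of Cy5-labelled ZRE DNA probe bound by purified Zta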
[2] = biological target: Epstein-Barr nuclear antigen 1 (Epstein-Barr virus (strain B95-8) (HHV-4) (Human herpesvirus 4), UniProt P03211); experiment: inhibition of EBV nuclear antigen 1 DNA binding – biochemical, fluorescence polarization, 1536-well, dose response (AID 2381); parameters: species or system human gammaherpesvirus 4;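 note: fluorescence polarization of a Cy5 DNA probe bound by EBNA-1 protein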
Epstein-Barr nuclear antigen 1, sequence (P03211 whole entry): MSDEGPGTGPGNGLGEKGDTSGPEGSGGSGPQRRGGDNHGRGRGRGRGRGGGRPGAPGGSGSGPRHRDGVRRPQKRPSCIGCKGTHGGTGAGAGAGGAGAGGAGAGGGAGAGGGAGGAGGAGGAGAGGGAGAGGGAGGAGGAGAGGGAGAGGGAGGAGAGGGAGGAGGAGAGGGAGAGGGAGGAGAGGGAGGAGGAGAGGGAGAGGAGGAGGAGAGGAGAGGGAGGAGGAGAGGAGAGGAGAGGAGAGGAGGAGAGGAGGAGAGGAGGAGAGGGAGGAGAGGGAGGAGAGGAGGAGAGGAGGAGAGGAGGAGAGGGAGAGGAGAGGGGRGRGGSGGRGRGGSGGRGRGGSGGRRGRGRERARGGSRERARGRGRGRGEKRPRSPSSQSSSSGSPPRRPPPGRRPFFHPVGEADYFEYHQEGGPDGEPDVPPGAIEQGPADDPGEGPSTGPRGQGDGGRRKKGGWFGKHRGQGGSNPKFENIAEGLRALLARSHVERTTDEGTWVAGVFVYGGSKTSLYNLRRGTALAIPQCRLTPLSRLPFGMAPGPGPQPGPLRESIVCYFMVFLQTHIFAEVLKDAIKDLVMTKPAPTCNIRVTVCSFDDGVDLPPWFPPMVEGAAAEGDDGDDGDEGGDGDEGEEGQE

[3] = biological target: T1, Estrogen receptor beta (Homo sapiens, UniProt Q92731); experiment: blockers of SRC-3 recruitment to ERβ – biochemical, ELISA, streptavidin-HRP readout, orthogonal assay, confirmation (AID 1060)
T1 sequence (Q92731 whole entry): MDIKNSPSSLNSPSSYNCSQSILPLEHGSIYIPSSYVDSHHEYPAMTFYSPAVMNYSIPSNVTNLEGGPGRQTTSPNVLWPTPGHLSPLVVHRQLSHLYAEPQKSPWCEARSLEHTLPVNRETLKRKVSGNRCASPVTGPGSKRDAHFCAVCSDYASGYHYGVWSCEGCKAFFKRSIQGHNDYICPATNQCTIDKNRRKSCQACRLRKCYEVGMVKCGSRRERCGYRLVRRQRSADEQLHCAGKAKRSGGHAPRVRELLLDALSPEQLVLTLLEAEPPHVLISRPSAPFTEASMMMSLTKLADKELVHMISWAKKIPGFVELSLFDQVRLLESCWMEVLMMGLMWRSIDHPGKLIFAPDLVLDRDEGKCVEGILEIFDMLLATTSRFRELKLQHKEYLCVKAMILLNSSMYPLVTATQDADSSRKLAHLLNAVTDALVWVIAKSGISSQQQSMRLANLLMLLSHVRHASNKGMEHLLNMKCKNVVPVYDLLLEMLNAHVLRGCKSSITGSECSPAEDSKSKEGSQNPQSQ

[4] = biological target: Heat shock protein HSP 90-alpha (Homo sapiens, UniProt P07900); experiment: Luminescence-based dose response biochemical high throughput screening assay for inhibitors of the Heat Shock Protein 90 (HSP90). [Related pubchem assays: 1831 (Summary AID.), 1846 (Confirmation screen.), 1789 (Primary screen.)]
[5] = biological target: T1, Estrogen receptor beta
[6] = biological target: NADPH oxidase 1 (Homo sapiens, UniProt Q9Y5S8); experiment: Late-stage luminescence-based cell-based dose response assay to identify inhibitors of NADPH oxidase 1 (NOX1): Purchased analogs 2.; type: functional
[7] = Luminescence Cell-Based Dose Response to Identify Activators of 5'UTR Stem-Loop Driven Prion Protein mRNA Translation in H4-C Neuroglioblastoma Cells. [Related pubchem assays: 1829 (Project Summary), 1814 (Primary HTS)]; type: functional
[8] = M. tuberculosis growth inhibition, HTS (AID 449762); type: functional
[9] = biological target: Disintegrin and metalloproteinase domain-containing protein 17 (Homo sapiens, UniProt P78536); experiment: inhibition of ADAM17 substrate cleavage – biochemical, quenched FRET substrate, counter-screen for ADAM10 exosite inhibitor project, dose response (AID 743253)
Disintegrin and metalloproteinase domain-containing protein 17, sequence (P78536 whole entry, the tested form may be a part): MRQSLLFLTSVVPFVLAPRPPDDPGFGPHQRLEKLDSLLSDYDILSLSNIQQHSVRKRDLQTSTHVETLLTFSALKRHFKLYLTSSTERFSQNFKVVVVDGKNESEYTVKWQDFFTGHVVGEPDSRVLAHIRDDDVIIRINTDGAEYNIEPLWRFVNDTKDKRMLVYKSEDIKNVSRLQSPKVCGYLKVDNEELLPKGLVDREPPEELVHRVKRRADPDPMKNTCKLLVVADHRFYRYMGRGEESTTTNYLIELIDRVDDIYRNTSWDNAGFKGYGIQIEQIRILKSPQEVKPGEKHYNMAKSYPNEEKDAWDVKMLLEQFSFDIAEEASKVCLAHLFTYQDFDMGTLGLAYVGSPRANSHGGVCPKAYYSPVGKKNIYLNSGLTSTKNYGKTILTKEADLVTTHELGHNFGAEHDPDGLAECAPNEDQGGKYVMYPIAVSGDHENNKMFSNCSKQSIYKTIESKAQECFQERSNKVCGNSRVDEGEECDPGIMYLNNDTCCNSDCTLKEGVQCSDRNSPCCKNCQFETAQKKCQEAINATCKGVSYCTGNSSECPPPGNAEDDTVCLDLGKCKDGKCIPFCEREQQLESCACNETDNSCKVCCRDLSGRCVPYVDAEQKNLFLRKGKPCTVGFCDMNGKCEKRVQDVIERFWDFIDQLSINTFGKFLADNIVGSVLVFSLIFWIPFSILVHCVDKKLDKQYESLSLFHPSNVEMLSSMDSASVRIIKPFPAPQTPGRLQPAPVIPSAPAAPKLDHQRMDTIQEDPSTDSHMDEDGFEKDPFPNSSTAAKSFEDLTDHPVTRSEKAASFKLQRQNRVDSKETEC

[10] = Luminescence Cell-Based Dose Confirmation to Identify Activators of 5'UTR Stem-Loop Driven Alpha-Synuclein mRNA Translation in H4 Neuroglioblastoma Cells. [Related pubchem assays: 1829 (Project Summary), 1814 (Primary HTS)]; type: functional
[11] = Luminescence Cell-Based Dose Response HTS to Identify Activators of Luciferase Translation or Activity in H4 […] Cells. [Related pubchem assays: 1829 (Project Summary), 1814 (Primary HTS)]; type: functional
[12] = Luminescence Cell-Based Dose Response to Identify Activators of Luciferase Translation or Activity in H4-C Neuroglioblastoma Cells. [Related pubchem assays: 1829 (Project Summary), 1814 (Primary HTS)]; type: functional
[13] = viability loss in HeLa cells – cytotoxicity control for MgcRacGAP inhibitor project, dose response (AID 624300); type: functional
[14] = biological target: Neuropeptide Y receptor type 2 (Homo sapiens, UniProt P49146); type: functional, cell-based;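 note: HEK293 cells expressing the receptor and a CNG channel; stimulus was NPY near EC95 followed by isoproterenol to raise cAMP; antagonist potency measured as restoring cAMP signal that NPY suppresses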
Neuropeptide Y receptor type 2, sequence (P49146 whole entry): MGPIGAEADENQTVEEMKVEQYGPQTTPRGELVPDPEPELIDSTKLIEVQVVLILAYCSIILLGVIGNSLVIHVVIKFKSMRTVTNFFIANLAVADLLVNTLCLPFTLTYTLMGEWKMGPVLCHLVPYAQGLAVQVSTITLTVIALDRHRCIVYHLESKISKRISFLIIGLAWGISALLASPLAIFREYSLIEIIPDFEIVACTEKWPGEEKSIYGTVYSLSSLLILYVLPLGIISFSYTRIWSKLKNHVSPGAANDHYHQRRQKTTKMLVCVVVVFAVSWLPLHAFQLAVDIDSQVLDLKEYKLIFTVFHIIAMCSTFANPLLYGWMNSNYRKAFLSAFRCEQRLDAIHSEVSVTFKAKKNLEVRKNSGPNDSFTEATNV

[15] = biological target: Beta Lactamase (Pseudomonas aeruginosa, UniProt Q932Y6); experiment: BLA reporter interference, concentration series – BLA reporter cells, FRET fluorescence, artefact control for NOD2-RIPK2 interaction inhibitor project, dose response (AID 651552); type: functional, cell-based
Beta Lactamase, sequence (Q932Y6 whole entry): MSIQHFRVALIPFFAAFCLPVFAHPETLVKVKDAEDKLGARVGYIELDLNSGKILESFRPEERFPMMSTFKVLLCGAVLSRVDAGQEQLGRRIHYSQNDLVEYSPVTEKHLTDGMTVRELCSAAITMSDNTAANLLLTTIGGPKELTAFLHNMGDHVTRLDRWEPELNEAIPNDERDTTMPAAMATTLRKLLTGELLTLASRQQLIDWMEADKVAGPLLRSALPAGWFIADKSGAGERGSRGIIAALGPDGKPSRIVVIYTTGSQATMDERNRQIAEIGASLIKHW

[16] = biological target: Beta-galactosidase (Escherichia coli, UniProt Q8VNN2); type: functional
Beta-galactosidase, sequence (Q8VNN2 whole entry): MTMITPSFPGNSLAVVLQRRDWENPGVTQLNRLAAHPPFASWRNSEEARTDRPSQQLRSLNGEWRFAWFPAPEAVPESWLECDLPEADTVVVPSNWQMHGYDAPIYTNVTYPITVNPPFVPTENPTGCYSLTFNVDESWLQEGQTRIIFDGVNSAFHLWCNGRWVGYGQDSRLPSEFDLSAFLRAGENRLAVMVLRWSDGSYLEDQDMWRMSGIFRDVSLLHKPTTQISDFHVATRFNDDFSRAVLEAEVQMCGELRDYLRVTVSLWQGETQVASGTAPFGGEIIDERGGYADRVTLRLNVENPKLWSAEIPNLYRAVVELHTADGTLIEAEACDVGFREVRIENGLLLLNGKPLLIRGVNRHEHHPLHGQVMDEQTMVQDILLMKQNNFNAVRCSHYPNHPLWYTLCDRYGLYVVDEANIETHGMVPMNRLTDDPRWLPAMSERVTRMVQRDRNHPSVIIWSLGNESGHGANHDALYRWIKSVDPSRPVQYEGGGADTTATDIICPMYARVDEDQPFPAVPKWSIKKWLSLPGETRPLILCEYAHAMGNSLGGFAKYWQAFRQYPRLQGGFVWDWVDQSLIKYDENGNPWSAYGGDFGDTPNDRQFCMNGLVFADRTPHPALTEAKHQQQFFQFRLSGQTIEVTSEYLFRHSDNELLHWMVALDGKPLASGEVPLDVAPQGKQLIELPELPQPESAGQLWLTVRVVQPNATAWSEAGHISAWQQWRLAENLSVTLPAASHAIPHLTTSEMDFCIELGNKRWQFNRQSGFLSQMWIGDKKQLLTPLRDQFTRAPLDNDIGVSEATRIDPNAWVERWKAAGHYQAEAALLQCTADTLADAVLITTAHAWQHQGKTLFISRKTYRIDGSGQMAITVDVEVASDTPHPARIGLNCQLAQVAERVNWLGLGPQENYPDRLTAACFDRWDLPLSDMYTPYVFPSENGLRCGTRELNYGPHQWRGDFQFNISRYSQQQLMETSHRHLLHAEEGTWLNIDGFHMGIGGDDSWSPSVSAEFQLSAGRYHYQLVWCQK

[17] = biological target: Neuropeptide Y receptor type 1 (Homo sapiens, UniProt P25929); type: functional;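 note: HEK293 cells with a CNG channel challenged with NPY then isoproterenol; potency as antagonist that reverses NPY suppression of cAMP signal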
[18] = biological target: T2, Kappa-type opioid receptor (Homo sapiens, UniProt P41145); type: functional
T2 sequence (P41145 whole entry): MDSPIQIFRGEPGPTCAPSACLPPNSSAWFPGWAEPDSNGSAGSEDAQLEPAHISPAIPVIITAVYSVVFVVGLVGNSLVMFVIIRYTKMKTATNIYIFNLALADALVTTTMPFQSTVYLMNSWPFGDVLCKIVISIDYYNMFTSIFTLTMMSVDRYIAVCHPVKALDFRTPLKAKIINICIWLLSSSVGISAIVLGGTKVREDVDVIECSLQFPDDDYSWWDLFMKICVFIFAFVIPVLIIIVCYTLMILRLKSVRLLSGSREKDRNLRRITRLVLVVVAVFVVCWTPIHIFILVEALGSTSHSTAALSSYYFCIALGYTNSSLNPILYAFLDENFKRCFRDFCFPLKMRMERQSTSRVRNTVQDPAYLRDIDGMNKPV

[19] = biological target: T2, Kappa-type opioid receptor; type: functional; remark: listed apart in the source
[20] = Fluorescence-based cell-based high throughput dose response assay for inhibitors of the interaction of nucleotide-binding oligomerization domain containing 2 (NOD2) and the receptor-interacting serine-threonine kinase 2 (RIPK2).; type: functional; settings: Homo sapiens
[21] = biological target: T3, Rac GTPase-activating protein 1 (Homo sapiens, UniProt Q9H0H5); experiment: blockers of MgcRacGAP-driven Rac1 GTP hydrolysis – biochemical, ADP Hunter fluorescence, primary and confirmatory, confirmation (AID 624330); type: functional
T3 sequence (Q9H0H5 whole entry): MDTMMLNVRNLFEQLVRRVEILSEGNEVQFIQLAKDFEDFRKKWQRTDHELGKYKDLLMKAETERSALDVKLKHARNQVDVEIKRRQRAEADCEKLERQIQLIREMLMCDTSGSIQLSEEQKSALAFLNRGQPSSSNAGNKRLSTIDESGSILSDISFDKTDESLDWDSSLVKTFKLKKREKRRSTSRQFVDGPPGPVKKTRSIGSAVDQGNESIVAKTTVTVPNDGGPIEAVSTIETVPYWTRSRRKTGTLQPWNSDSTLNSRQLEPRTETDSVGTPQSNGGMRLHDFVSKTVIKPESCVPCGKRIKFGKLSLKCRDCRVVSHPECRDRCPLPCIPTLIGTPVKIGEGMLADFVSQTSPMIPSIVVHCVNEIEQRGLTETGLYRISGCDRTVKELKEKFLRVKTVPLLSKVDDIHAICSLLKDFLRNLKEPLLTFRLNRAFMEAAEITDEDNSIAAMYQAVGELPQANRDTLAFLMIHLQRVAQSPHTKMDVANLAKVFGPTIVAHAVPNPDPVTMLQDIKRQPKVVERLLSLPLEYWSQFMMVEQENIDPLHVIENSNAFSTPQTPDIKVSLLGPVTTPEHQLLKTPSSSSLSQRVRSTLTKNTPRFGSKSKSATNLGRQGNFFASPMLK

[22] = biological target: T4, Microphthalmia-associated transcription factor (Homo sapiens, UniProt O75030); experiment: reducers of TRPM1 reporter luminescence, concentration series – cell-based, SK-MEL-5, cherry-picked, set 3, MITF inhibitor project, dose response (AID 493073); type: functional;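 note: SK-MEL-5 melanoma cells with luciferase driven by the MITF target TRPM1 promoter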
T4 sequence (O75030 whole entry): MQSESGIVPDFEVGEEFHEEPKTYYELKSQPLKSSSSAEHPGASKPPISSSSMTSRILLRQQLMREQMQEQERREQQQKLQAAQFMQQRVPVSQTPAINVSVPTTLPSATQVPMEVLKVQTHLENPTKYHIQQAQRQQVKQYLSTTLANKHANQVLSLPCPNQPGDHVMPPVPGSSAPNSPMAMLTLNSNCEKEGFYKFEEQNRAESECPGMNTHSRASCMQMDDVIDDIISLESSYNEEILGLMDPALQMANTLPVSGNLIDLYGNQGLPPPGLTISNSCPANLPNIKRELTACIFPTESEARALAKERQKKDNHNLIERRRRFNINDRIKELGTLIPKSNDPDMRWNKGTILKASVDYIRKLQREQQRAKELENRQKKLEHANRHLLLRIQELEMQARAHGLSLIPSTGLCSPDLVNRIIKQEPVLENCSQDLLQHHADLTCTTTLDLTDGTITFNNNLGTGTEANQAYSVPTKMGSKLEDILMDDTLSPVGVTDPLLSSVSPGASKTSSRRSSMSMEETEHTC

[23] = biological target: T5, E3 ubiquitin-protein ligase XIAP (Homo sapiens, UniProt P98170); experiment: small molecules displacing peptide from XIAP – biochemical, IAP family, fluorescence polarization (AID 1018); type: functional
T5 sequence (P98170 whole entry): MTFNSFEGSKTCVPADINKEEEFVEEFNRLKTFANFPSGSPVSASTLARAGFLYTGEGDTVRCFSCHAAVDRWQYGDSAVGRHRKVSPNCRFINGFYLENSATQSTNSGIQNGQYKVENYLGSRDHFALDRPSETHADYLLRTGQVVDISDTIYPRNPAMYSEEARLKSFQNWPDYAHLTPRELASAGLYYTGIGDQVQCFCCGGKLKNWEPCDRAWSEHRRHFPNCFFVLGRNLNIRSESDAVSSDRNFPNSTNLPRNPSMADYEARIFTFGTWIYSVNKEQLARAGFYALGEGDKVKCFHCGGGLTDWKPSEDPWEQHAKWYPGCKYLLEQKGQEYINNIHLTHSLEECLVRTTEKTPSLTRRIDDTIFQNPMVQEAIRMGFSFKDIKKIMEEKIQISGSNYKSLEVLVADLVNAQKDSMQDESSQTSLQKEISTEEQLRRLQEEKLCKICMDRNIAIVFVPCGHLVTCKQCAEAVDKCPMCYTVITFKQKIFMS

[24] = biological target: T5, E3 ubiquitin-protein ligase XIAP; experiment: Counter Screen using XIAP-Bir3 for Chemical Antagonists of Bir1/2 domains of IAP-family anti-apoptotic proteins. [Related pubchem assays (depositor defined):AID1018, AID1449, AID1514, AID1638, AID1749, AID1750, AID488957, AID488963]
[25] = biological target: 14-3-3 protein gamma (Homo sapiens, UniProt P61981); experiment: modulators of 14-3-3 gamma client binding – dose response (AID 711); type: functional
14-3-3 protein gamma, sequence (P61981 whole entry): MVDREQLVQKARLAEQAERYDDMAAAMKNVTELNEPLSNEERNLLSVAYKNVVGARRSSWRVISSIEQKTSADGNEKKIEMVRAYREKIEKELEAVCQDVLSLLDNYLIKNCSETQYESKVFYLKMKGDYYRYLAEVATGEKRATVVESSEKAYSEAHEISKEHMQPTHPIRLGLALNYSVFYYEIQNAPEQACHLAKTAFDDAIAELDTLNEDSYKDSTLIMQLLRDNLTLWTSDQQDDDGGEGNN

[26] = biological target: Solute carrier family 12 member 2/member 5 (Homo sapiens, UniProt P55011+Q9H2X9); experiment: KCC2 and NKCC1 inhibition by rubidium flux, cell-based, NKCC1 counter-screen (AID 1734); type: functional, HEK293

Structure (SMILES): Cc1ccc(/C=C2\SC(=S)N(CCC(=O)NNC(=O)c3ccc(O)cc3)C2=O)cc1
- IC50 [1]: > 111 µM (not active)
- IC50 [2]: 11.6 µM (not active)

Structure (SMILES): Cc1nc2cc(C(=O)O)ccc2[nH]1
- IC50 [3]: 99.5 µM (not active)
- IC50 [4]: 7.21 µM (active)
- IC50 [5]: 24.7 µM (active)

Structure (SMILES): COc1ccc(/C=N/Nc2c(F)c(F)c(F)c(F)c2F)cc1
- IC50 [6]: > 17 µM (not active)

Structure (SMILES): C(=C\c1ccccc1)/C=N/Nc1nc2ccccc2s1
- EC50 [7]: 0.349 µM (active)
- IC50 [8]: > 100 µM (active)
- IC50 [9]: > 69.5 µM (inactive)
- EC50 [10]: 0.366 µM (active)
- EC50 [11]: < 0.1 µM (inconclusive)
- EC50 [12]: 0.289 µM (active)

Structure (SMILES): N#CC(C#N)=C1C=CC=CN1/C(=C\c1ccco1)C(=O)c1ccc(Cl)cc1
- CC50 [13]: 100 µM (active)
- IC50 [14]: 3.06 µM (active)
- IC50 [15]: 45.9 µM (inactive)
- EC50 [16]: > 31.5 µM (inactive)
- IC50 [17]: 4.08 µM (active)
- IC50 [18]: 3.64 µM (active)
- IC50 [19]: 16.5 µM
- IC50 [20]: 1.13 µM (active)
- IC50 [21]: 121 µM (active)
- AC50 [22]: 6.85 µM (active)

Structure (SMILES): O=C(Nc1ccccc1)c1cc(S(=O)(=O)N2CCSCC2)ccc1Cl
- IC50 [23]: > 100 µM (not active)
- IC50 [24]: > 100 µM (inactive)

Structure (SMILES): COc1ccc(C(=O)Oc2ccc(C(C)=O)cc2)c(OC)c1
- IC50 [25]: > 50 µM (not active)

Structure (SMILES): O=C(Cn1cnc2c(nnn2Cc2ccccc2)c1=O)N1CCCc2ccccc21
- IC50 [26]: 6 µM (active)
